Consider 24 molecules from patent US20060148760A1, “Method for the sysnthesis of compounds of formula I and their uses thereof” (TransTech Pharma, priority 2000, published 2006).

For test [1], the target named is T1, Carboxymethyl Lysine (CML)/RAGE interaction (Homo sapiens, UniProt Q15109).
T1 construct: generate soluble RAGE (sRAGE) comprised of the V and C domains
In words: ELISA assay, CML binding to sRAGE. The conditions noted are these: plate-bound CML. The procedure: (§1) S100b, β-amyloid and CML (500 ng/100 μL/well) in 100 mM sodium bicarbonate/sodium carbonate buffer (pH 9.8) is loaded onto the wells of a NUNC Maxisorp flat bottom 96—well microtitre plate. The plate is incubated at 4° C. overnight. The wells are aspirated and treated with 50 mM imidazole buffer saline (pH 7.2) (with 1 mM CaCl2/MgCl2) containing 1% bovine serum albumin (BSA) (300 μL/well) for two h at 37° C.
(§2) Test compounds are dissolved in nanopure water (concentration: 10-100 μM). DMSO may be used as co-solvent. 25 μL of test compound solution in 2% DMSO is added, along with 75 μL sRAGE (4.0×10^−4 mg/mL FAC) to each well and samples are incubated for 1 h at 37° C. The wells are washed 3 times with 155 mM NaCl pH 7.2 buffer saline and are soaked 10 seconds between each wash. Non-radioactive binding is performed by adding:
(§3) 10 μL Biotinylated goat F(ab′)2 Anti-mouse IgG. (8.0×10^−4 mg/mL, FAC)
(§4) 10 μL Alk-phos-Sterptavidin (3×10^−3 mg/mL FAC)
(§5) 10 μL Polyclonal antibody for sRAGE (FAC 6.0×10^−3 mg/mL) to 5 mL 50 mM imidazole buffer saline (pH 7.2) containing 0.2% bovine serum albumin and 1 mM CaCl2. The mixture is incubated for 30 minutes at 37° C. 100 μL complex is added to each well and incubation is allowed to proceed at rt for 1 h. Wells are washed 3 times with wash buffer and soaked 10 s between each wash. 100 μL 1 mg/mL (pNPP) in 1 M diethanolamine (pH adjusted to 9.8 with HCl) is added. […] The reaction is quenched with 10 μL of stop solution (0.5 N NaOH in 50% ethanol) and the absorbance is measured spectrophotometrically with a microplate reader at 405 nm.

Test [2] has as its target T2, S-100b/RAGE interaction (Homo sapiens, UniProt Q15109).
T2 construct: generate soluble RAGE (sRAGE) comprised of the V and C domains
In words: ELISA assay, S-100b binding to sRAGE. The conditions noted are these: plate-bound S100b, concentration at which 50% signal is inhibited. The procedure: as §1, §2, §3, §4, §5
A general note: An ELISA detects its analyte on a solid surface through an enzyme-linked reagent.

Test [3] addresses T3, β-amyloid—RAGE interaction (Homo sapiens, UniProt Q15109).
T3 construct: generate soluble RAGE (sRAGE) comprised of the V and C domains
Nature of the test: ELISA assay, β-amyloid binding to sRAGE. To be noted: plate-bound β-amyloid. The procedure:
as §1, §2, §3, §4, §5

pIC50: −log10 of the molar value. Where a name gives a salt, the structure may show the parent alone.

T3 sequence (Q15109 23-342 limits assumed): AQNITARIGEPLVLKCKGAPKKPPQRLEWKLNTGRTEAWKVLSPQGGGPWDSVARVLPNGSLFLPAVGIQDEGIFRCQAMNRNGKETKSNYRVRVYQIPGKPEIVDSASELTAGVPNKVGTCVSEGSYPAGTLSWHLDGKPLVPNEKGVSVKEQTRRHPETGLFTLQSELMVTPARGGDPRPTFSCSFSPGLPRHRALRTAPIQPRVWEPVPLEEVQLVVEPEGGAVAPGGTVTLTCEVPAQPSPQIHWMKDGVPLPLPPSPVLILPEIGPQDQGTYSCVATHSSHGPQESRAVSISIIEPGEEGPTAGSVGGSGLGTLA
T2 sequence (Q15109 23-342 limits assumed): as above
T1 sequence (Q15109 23-342 limits assumed): as above

On to `CCCCOc1cc(C(=O)OC)ccc1NC(=O)[C@H](N)Cc1ccc2ccccc2c1` [Example 2, (R)-3-(2-Naphthyl)-2-aminopropionic Acid 4-Methoxycarbonyl-2-butoxyaniline Amide Hydrochloride], for which the figures for the pIC50 in test [1] and in test [2] were 5.50 and 5.29, respectively. Regarding `CCCCOc1cc(C(=O)OCCN(CC)CC)ccc1NC(=O)[C@@H](Cc1ccc(OCc2ccccc2)cc1)NC(=O)OC(C)(C)C` [Example 3, (R)-3-(4-Benzyloxyphenyl)-2-tert-butoxycarbonylaminopropionic Acid 4-Diethylaminoethoxycarbonyl-2-butoxyaniline Amide], the pIC50 (commonly the IC50 on a negative log10 scale, so that one unit is a factor of ten) in test [1] was 5.82; in test [3] it was 5.82; in test [2], 5.88. As to `CCCCOc1cc(C(=O)OCCN(CC)CC)ccc1NC(=O)[C@H](N)Cc1ccc(OCc2ccccc2)cc1` [Example 4, (R)-3-(4-Benzyloxyphenyl)-2-aminopropionic Acid 4-Diethylaminoethoxycarbonyl-2-butoxyaniline Amide Dihydrochloride], the pIC50 in test [1] is 5.95; in test [3] it was 5.66; in test [2] it was 6.09. In the case of `CCCCOc1cc(C(=O)OCCN(CC)CC)ccc1NC(=O)[C@@H](Cc1ccc2ccccc2c1)NC` [Example 5, (R)-3-(2-Naphthyl)-2-methylaminopropionic Acid 4-Diethylaminoethoxycarbonyl-2-butoxyaniline Amide Dihydrochloride], the pIC50 in test [1] is 5.90; in test [3], 5.74; in test [2], 5.54. In test [2], `COC(=O)c1ccc(NC(=O)[C@@H](Cc2ccc(OCc3ccccc3)cc2)NC(=O)OC(C)(C)C)c(O)c1` [Example 6, (R)-3-(4-Benzyloxyphenyl)-2-tert-butoxycarbonylaminopropionic Acid 4-Methoxycarbonyl-2-hydroxyaniline Amide] showed a pIC50 of 5.20. For the molecule `CC(C)(C)OC(=O)N[C@H](Cc1ccc(OCc2ccccc2)cc1)C(=O)Nc1ccc(C(=O)OC(C)(C)C)cc1OC(C)(C)C` [Example 7, (R)-3-(4-Benzyloxyphenyl)-2-tert-butoxycarbonylaminopropionic Acid 4-tert-Butoxycarbonyl-2-tert-butoxyaniline Amide], the pIC50 in test [1] is 5.10; in test [2], 5.52 to 6.00.

In turn, `CCN(CC)CCOC(=O)c1ccc(NC(=O)[C@@H](Cc2ccc(OCc3ccccc3)cc2)NC(=O)OC(C)(C)C)c(OCC(C)C)c1` [Example 8, (R)-3-(4-Benzyloxyphenyl)-2-tert-butoxycarbonylaminopropionic Acid 4-Diethylaminoethoxycarbonyl-2-isobutoxyaniline Amide] gave a pIC50 in test [2] of 5.70. The molecule `CCN(CC)CCOC(=O)c1ccc(NC(=O)[C@H](N)Cc2ccc(OCc3ccccc3)cc2)c(OCC(C)C)c1` [Example 9, (R)-3-(4-Benzyloxyphenyl)-2-aminopropionic Acid 4-Diethylaminoethoxycarbonyl-2-isobutoxyaniline Amide Dihydrochloride] had a pIC50 in test [2] of 5.80.

On to `CCCCOc1cc(C(=O)OCCN(CC)CC)ccc1NC(=O)[C@@H](Cc1ccccc1)NC(=O)OC(C)(C)C` [Example 10, (R)-3-Phenyl-2-tert-butoxycarbonylaminopropionic Acid 4-Diethylaminoethoxycarbonyl-2-butoxyaniline Amide], for which the pIC50 in test [2] is 6.02. This pIC50 lies 0.22 log units higher than the previous one. In the case of `CCCCOc1cc(C(=O)OCCN(CC)CC)ccc1NC(=O)[C@H](N)Cc1ccccc1` [Example 11, (R)-3-Phenyl-2-aminopropionic Acid 4-Diethylaminoethoxycarbonyl-2-butoxyaniline Amide Dihydrochloride], the pIC50 in test [2] is 4.52 to 5.00. Regarding `CCCCOc1cc(C(=O)OCCN(CC)CC)ccc1NC(=O)[C@@H](Cc1ccc(OCc2ccccc2)cc1)NC(C)C` [Example 13, (R)-3-(4-Benzyloxyphenyl)-2-isopropylaminopropionic Acid 4-Diethylaminoethoxycarbonyl-2-butoxyaniline Amide], the pIC50 is 6.15 in test [1], 6.00 in test [3] and 6.00 in test [2]. Molecule `CCCCOc1cc(C(=O)OCCN(CC)CC)ccc1NC(=O)[C@@H](Cc1ccc(OCc2ccccc2)cc1)NCc1ccccc1` [Example 14, (R)-3-(4-Benzyloxyphenyl)-2-benzylaminopropionic Acid 4-Diethylaminoethoxycarbonyl-2-butoxyaniline Amide] had a negative-log IC50 (pIC50) in test [2] of 5.55. On the same count and under the same terms, under `CCCCOc1cc(C(=O)OCCN(CC)CC)ccc1NC(=O)[C@@H](Cc1ccc(OCc2ccccc2)cc1)NS(C)(=O)=O` [Example 15, (R)-3-(4-Benzyloxyphenyl)-2-methanesulfonylaminopropionic Acid 4-Diethylaminoethoxycarbonyl-2-butoxyaniline Amide] stands 4.52 to 5.00; under `CCCCOc1cc(C(=O)OCCN(CC)CC)ccc1NC(=O)[C@@H](Cc1ccc(OCc2ccccc2)cc1)NS(=O)(=O)c1ccccc1` [Example 16, (R)-3-(4-Benzyloxyphenyl)-2-phenylsulfonylaminopropionic Acid 4-Diethylaminoethoxycarbonyl-2-butoxyaniline Amide], 4.52 to 4.70; under `CCCCOc1cc(C(=O)OCCN(CC)CC)ccc1NC(=O)[C@@H](Cc1ccc(OCc2ccccc2)cc1)NC(=O)NCC` [Example 17, (R)-3-(4-Benzyloxyphenyl)-2-ethylcarbamoylaminopropionic Acid 4-Diethylaminoethoxycarbonyl-2-butoxyaniline Amide], 5.00. For `CCCCOc1cc(C(=O)OCCN(CC)CC)ccc1NC(=O)[C@@H](Cc1ccc(OCc2ccccc2)cc1)NC(=O)NC(C)(C)C` [Example 18, (R)-3-(4-Benzyloxyphenyl)-2-tert-butylcarbamoylaminopropionic Acid 4-Diethylaminoethoxycarbonyl-2-butoxyaniline Amide], the pIC50 in test [1] is 6.08; in test [3], 5.70; in test [2] it was 5.64. The matching figures for `CCN(CC)CCOc1ccc(NC(=O)[C@@H](Cc2ccc(OCc3ccccc3)cc2)NC(=O)OC(C)(C)C)c(OCCN(CC)CC)c1` [Example 19, (R)-3-(4-Benzyloxyphenyl)-2-tert-butoxycarbonylaminopropionic Acid 4-Diethylaminoethoxy-2-diethylaminoethoxyaniline Amide]: 6.10, 6.10 and 5.94. Regarding `CCN(CC)CCCOc1ccc(NC(=O)[C@@H](Cc2ccc(OCc3ccccc3)cc2)NC(=O)OC(C)(C)C)c(OCCCN(CC)CC)c1` [Example 21, (R)-3-(4-Benzyloxyphenyl)-2-tert-butoxycarbonylaminopropionic Acid 4-(3-Diethylamino-1-propoxy)-2-(3-diethylamino-1-propoxy)aniline Amide], the pIC50 in test [1] is 6.34; in test [3] it was 5.91; in test [2] it was 6.19.

In the case of `CCN(CC)CCOC(=O)c1ccc(NC(=O)[C@@H](Cc2ccc(OCc3ccccc3)cc2)NC(=O)OC(C)(C)C)c(OCc2ccco2)c1` [Example 23, (R)-3-(4-Benzyloxyphenyl)-2-tert-butoxycarbonylaminopropionic Acid 4-Diethylaminoethoxycarbonyl-2-(2-furylmethoxy)aniline Amide], the pIC50 in test [2] was 4.81. `CCN(CC)CCOC(=O)c1ccc(NC(=O)[C@H](N)Cc2ccc(OCc3ccccc3)cc2)c(OCc2ccco2)c1` [Example 24, (R)-3-(4-Benzyloxyphenyl)-2-aminopropionic Acid 4-Diethylaminoethoxycarbonyl)-2-(2-furylmethoxy)aniline Amide Dihydrochloride] had a pIC50 in test [2] of 5.57. On to `CCCCOc1cc(C(=O)OCCN(CC)CC)ccc1NC(=O)[C@@H](Cc1ccc2ccccc2c1)NC(C)=O` [Example 25, (R)-3-(2-Naphthyl)-2-acetylaminopropionic Acid 4-Diethylaminoethoxycarbonyl-2-butoxyaniline Amide], for which the pIC50 in test [2] was 4.82. Take `CCCCOc1cc(C(=O)OCCN(CC)CC)ccc1NC(=O)[C@@H](Cc1ccc(OCc2ccccc2)cc1)NC(C)=O` [Example 26, (R)-3-(4-Benzyloxyphenyl)-2-acetylaminopropionic Acid 4-Diethylaminoethoxycarbonyl-2-butoxyaniline Amide]: in test [2], the pIC50 was 5.25.

Consider “(R)-3-(2-Naphthyl)-2-guanidinylpropionic Acid 4-Diethylaminoethoxycarbonyl-2-butoxyaniline Amide Dihydrochloride [Example 12]”, for which the pIC50 in test [1] is 6.15; in test [3], 5.30; in test [2], 6.00 to 6.52. Take “(R)-3-(4-Benzyloxyphenyl)-2-aminopropionic Acid 4-(3-Diethylamino-1-propoxy)-2-(3-diethylamino-1-propoxyaniline Amide Trihydrochloride [Example 22]”: the values for the pIC50 in test [1], in test [3] and in test [2] were 6.17, 5.76 and 6.04, respectively.
